Patent US5607967A, “Treatment of alzheimer's disease with 5-(tetradecyloxy)-2-furan carboxylic acid” (Merck & Co., Inc., priority 1994, dated 1997)

Assays:
[1] = system: GR/NER chimeric receptor; assay: Activation of GR/NER in CV1 cells (luciferase); conditions: for Fold of stimulation GR/NER: no TOFA
Experimental: The ligand dependent transcription assays were performed as described in Example 4, using CV1 cells in place of COS cells. The transfected CV1 cells were treated with dopamine, TOFA, or with a combination of TOFA and dopamine at the indicated concentrations and tested for luciferase activity.
CV1 cells were co-transfected with the MMTV-Luciferase reporter gene (pJA358) and the GR/NER chimeric receptor as described in Example 4. The cells were treated with increasing amount of the dopamine D1 receptor antagonist SCH 23390 with or without 50 μM […] dopamine.

[2] = system: GR/NER chimeric receptor; assay: Activation of GR/NER in COS-7 cells (luciferase); conditions: for Fold of stimulation GR/NER: no TOFA
Experimental: The ligand dependent transcription assays were performed as described in Example 4. The transfected COS cells were treated with dopamine, TOFA, or with the combination of TOFA and dopamine at the indicated concentrations and tested for luciferase activity.

[3] = system: GR/NER chimeric receptor; assay: Ligand dependent transcription assay, GR/NER chimeric receptor with MMTV-luciferase reporter; format: cell-based, human
Experimental: To search for putative ligands for the NER receptor, the chimeric receptor GR/NER was prepared. […] Chimeric receptors were prepared in which the amino terminal portion of the mouse glucocorticoid receptor (mGR) that includes the DNA binding domain was fused to the putative ligand binding domains of the nuclear receptor NER to form the respective chimeric receptor GR/NER. The cDNA sequences coding for amino acid residues Arg^155 and Glu^156 of the hNER receptor (Shinar et al., NER, a new member of a gene family encoding the steroid hormone nuclear receptor; GENE (in press) were convened to the Xho I restriction site, which site was later used for the ligation to the GR cDNA sequences that coded for the DNA binding domain. Thus, the amino acid residues Arg^155 and Glu^156 of the NER receptor were convened to amino acid residues Ser^155 and His^156.
The chimera was employed in ligand dependent transactivation assays with the reporter gene MMTV-luciferase, in which the luciferase cDNA is transcribed under the control of the MMTV promoter.
(§1) Similar hybrid receptors GR/NER, GR/NUC and GR/PPAR, in identical expression plasmid backgrounds were prepared essentially as described for the construction of the GR/mPPAR and GR/NUC chimeric receptors in Schmidt et al., "Identification of a new member of the steroid hormone receptor superfamily that is activated by a peroxisome proliferator and fatty acids," Mol. Endocrinol., 6(10):1634-41, 1992, and in Boie et al., "Enantioselective activation of the peroxisome proliferator-activated receptor", J. Biol. Chem. 268(8):5530-4, 1993.
(§2) Briefly, the amino terminal portion of the mouse glucocorticoid receptor (mGR), that includes the DNA binding domain was fused to the putative ligand binding domains of the nuclear receptor NER, hNUC-I (Schmidt et al., 1992), mPPAR (Issenmann and Green, 1990) to form the respective chimeric receptors GR/NER, GR/NUC and GR/PPAR. The GR/NER chimeric receptor was constructed as described for the GR/NUC and GR/PPAR hybrid receptors (Schmidt et al., 1992; Boie et al). The cDNA sequences coding for amino acids Arg^155 and Glu^156 of the NER receptor were converted to the Xho I restriction site, that was later used for the ligation to the GR cDNA sequences that coded for the DNA binding domain. Thus, converting amino acid residues Arg^155 and Glu^156 of NER receptor to amino acid residues Ser^155 and His^156.

[4] = molecular target: T1, GR/PPAR chimeric receptor (Mus musculus, UniProt P23204); assay: Ligand dependent transcription assay, GR/PPAR chimeric receptor with MMTV-luciferase reporter; format: cell-based
T1 construct: COS cells, MMTV-luciferase
T1 sequence (P23204 1-468): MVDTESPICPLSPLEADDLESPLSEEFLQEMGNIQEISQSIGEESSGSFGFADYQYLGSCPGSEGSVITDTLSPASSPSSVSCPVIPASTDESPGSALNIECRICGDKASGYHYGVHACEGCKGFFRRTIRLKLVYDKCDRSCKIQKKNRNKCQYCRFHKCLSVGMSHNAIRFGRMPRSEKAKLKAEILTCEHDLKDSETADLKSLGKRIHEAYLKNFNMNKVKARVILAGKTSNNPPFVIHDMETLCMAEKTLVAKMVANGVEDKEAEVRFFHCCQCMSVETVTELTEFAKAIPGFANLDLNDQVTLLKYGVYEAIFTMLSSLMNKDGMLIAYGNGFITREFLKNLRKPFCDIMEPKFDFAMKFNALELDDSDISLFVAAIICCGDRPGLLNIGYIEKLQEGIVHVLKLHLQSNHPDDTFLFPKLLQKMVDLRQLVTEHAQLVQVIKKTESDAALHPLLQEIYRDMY
T1 sequence (P06537 1-792 partner): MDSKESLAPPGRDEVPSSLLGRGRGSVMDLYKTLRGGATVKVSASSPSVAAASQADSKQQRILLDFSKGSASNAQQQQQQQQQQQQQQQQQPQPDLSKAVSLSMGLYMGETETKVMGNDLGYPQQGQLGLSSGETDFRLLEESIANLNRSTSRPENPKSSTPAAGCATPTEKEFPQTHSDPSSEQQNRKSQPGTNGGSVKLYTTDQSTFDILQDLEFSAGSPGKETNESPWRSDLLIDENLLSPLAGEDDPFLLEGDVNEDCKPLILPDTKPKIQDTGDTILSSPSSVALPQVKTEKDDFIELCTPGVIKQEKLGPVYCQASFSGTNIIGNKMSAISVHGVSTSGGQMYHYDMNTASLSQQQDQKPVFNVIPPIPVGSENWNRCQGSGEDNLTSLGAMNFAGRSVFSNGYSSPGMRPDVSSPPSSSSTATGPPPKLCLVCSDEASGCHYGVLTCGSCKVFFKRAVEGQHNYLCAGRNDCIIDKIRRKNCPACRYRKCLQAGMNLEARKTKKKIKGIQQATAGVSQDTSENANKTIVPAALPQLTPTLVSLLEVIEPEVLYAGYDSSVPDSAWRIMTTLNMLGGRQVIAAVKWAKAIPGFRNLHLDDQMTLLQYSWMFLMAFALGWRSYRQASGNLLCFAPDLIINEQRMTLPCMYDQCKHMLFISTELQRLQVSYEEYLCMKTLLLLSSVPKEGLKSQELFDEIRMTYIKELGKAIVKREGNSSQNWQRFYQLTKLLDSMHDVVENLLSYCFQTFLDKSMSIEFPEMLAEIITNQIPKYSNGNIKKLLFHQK
Experimental: as §1, §2
The ligand transcription assay mediated by GR/PPAR in COS cells was performed as described in Example 4. The cells were treated with TOFA and Cerulenin at 0.1, 1, 10 and 100 μM.

[5] = system: Dopamine D2 receptor antagonist (Haloperidol) induced catalepsy; assay: Haloperidol induced catalepsy (Bar method); format: in vivo, rat; conditions: carrier pretreatment, 24 h later 0.1 mg/kg Haloperidol

Structure (SMILES): NCCc1ccc(O)c(O)c1 [Dopamine, dopamine]
- Effect on transcription mediated by GR/NER in CV1 cells [1]: suppressed the transcription
- Fold of stimulation GR/NER ([1]; dopamine 0.1 μM): 1.28 ± 0.05 fold
- Fold of stimulation GR/NER ([1]; dopamine 1.0 μM): 0.88 ± 0.11 fold
- Fold of stimulation GR/NER ([1]; dopamine 10 μM): 0.55 ± 0.06 fold
- Fold of stimulation GR/NER ([1]; dopamine 100 μM): 0.44 ± 0.14 fold
- Fold of stimulation GR/NER ([2]; dopamine 0.1 μM, 1440 min): 1.10 ± 0.07 fold
- Fold of stimulation GR/NER ([2]; dopamine 1.0 μM): 0.87 ± 0.06 fold
- Fold of stimulation GR/NER ([2]; dopamine 10 μM, 1440 min): 0.84 ± 0.08 fold
- Fold of stimulation GR/NER ([2]; dopamine 100 μM, 1440 min): 0.87 ± 0.11 fold
- Suppression of GR/NER mediated transcription in COS-7 cells ([2]; no significant dopamine D1 receptor expression): suppression was not seen

Structure (SMILES): Cc1cccc(Nc2cc(Cl)nc(SCC(=O)O)n2)c1C [WY14643, reference compound]
- Expression mediated by GR/NER [3]: not by the GR/NER chimera
- Expression mediated by GR/PPAR [4]: activated expression

Structure (SMILES): O=C(CCCN1CCC(O)(c2ccc(Cl)cc2)CC1)c1ccc(F)cc1 [Haloperidol, haloperidol, reference compound]
- Catalepsy Duration [5]: 20.3 ± 6.7 s
